Laboratory results published in article PMC9818267, “Brain Natriuretic Peptide Protects Cardiomyocytes from Apoptosis and Stimulates Their Cell Cycle Re-Entry in Mouse Infarcted Hearts” (Cells, 2022).
No end group written: not given here.

Experiments:
cardiomyocytes (CMs) [1] = experiment: qRT-PCR on CMs isolated from treated hearts; type: in vivo, mouse
Protocol: (§1) BNP was injected into infarcted adults, and unmanipulated neonatal and adult mice. Directly after surgery, NaCl (saline) or BNP (1.3 µg/20 g in 20 µL) was injected into the left ventricle cavity. At 24 h after MI, mice were intraperitoneal (ip) injected with BNP (2 µg/20 g mice) or saline every 2 days. C57BL/6 mice were sacrificed 1- and 14 days post-MI and Myh6 MerCreMer mice were sacrificed 14 days post-MI (Figure 1A). Neonatal C57BL/6 mice (3 days after birth) were injected ip with NaCl or BNP every two days (1 µg/2 g; Bachem; synthetic mouse BNP (1–45) peptide (catalog number H-7558)). Mice were sacrificed 11 days after birth (Figure 1B). Eight week old C57 BL/6 mice or Myh6 MerCreMer unmanipulated mice were injected ip with BNP (2 µg/20 g mice) or NaCl every two days (Figure 1C). Two weeks after the first injection, mice were sacrificed. To assess for the implication of the ERK signaling pathway in the BNP effect on CMs, PD0325901 (60 µg/20 g mice in 80 µL) was administered by gavage in adult unmanipulated mice 1 h before BNP injection (2 µg/20 g mice).
(§2) CM isolations were performed thanks to the Langendorff-Free method. […] Thereafter, the heart was removed from the chest and the left ventricle was perfused with enzymatic solution containing collagenase II (120 U/mL), collagenase IV (120 U/mL) (Worthington, Biochemical Corporation, USA) and protease XIV (0.05 mg/mL or 0.175 U/mL) (Sigma-Aldrich, Merck, Darmstadt, Germany). In each experiment, a full digestion of the heart was obtained. After digestion, cardiac cells were dissociated by gentle pipetting, filtered and collected after 25 min sedimentation. For infarcted hearts, the tissue was separated into the three zones (ZI, BZ and RZ). The three different areas were weighted before gentle pipetting.
(§3) qRT-PCR were performed using the SYBR Premix Ex Taq polymerase (Takara Bio Inc., Shiga, Japan) with the ViiA^TM7 Instrument (Applied Biosystems, Waltham, MA, USA). Total RNA was isolated from heart tissue, CM cell cultures and isolated CMs using TRI-Reagent (Zymo Research, Orange County, CA, USA). cDNA was synthesized from RNA using PrimeScript RT reagent kit (Takara Bio Inc.). Polymerase chain reactions (PCR) were performed using the SYBR Premix Ex Taq polymerase (Takara Bio Inc.) with the ViiA^TM7 Instrument (Applied Biosystems). Results were obtained after 40 cycles of a thermal step protocol consisting of an initial denaturation of 95 °C (1 s), followed by 60 °C (20 s) of elongation (α-skeletal actin has an elongation time of 30 s at 60 °C). The sequences of primers were reported in Supplementary File S2. All results were normalized with the 18S housekeeping gene (Δ CT values). Means of ΔΔ CT (Δ CTBNP–Δ CTsaline) values (versus untreated cells or NaCl treated mice) were calculated and results were represented as 2^−ΔΔCT. Statistics were performed on ΔΔ CT individual values. SEM fold increase was calculated using 2^−ΔΔ CT high values − 2^−means of ΔΔCT [13].

phospholamban (PLB) = experiment: Western blot pPLB/PLB in adult CMs stimulated in vitro; type: cell-based, mouse; settings: adult CMs stimulated with BNP for 2–3 h in vitro, vs untreated
Protocol: as §2
Total proteins were extracted from CMs isolated from adult infarcted and unmanipulated neonatal and adult hearts. Proteins were transferred to nitrocellulose membranes (Biorad) before incubation with primary antibodies overnight at 4 °C. Secondary antibodies were added 1 h at RT in the dark (Supplementary File S1). The signal was detected and quantified with the Odyssey infrared imaging system (LI-COR. Biosciences, Bad Homburg, Germany). All results were normalized to the tubulin protein level or to the total protein level thanks to stainings with the Revert 700 Total protein Stain (LI-COR).

adult CMs = experiment: Adult CM culture 7 days with BNP; type: cell-based, mouse; settings: 10 nM BNP, 7 days of culture
Protocol: as §2, §3

ERK = experiment: Western blot pERK/ERK in CMs isolated from BNP-treated hearts; type: in vivo, mouse; settings: CMs isolated from BNP-treated adult unmanipulated hearts (injection 2–3 h before isolation), vs saline
Protocol: as §1
CM isolations were performed thanks to the Langendorff-Free method. […]
Total proteins were extracted from CMs isolated from adult infarcted and unmanipulated neonatal and adult hearts. […] The signal was detected and quantified with the Odyssey infrared imaging system (LI-COR. Biosciences, Bad Homburg, Germany). […]

cardiomyocytes (CMs) [2] = experiment: qRT-PCR on CMs isolated from treated hearts; type: in vivo, mouse; settings: CMs from border area of infarcted hearts 10 days after surgery, BNP vs saline
cGMP = settings: BNP-treated infarcted mice, cited from earlier work
Protocol: In previous work, we followed the BNP kinetic by measuring the cGMP level in the hearts and plasma of BNP-treated infarcted mice. 30 min after BNP injections, the cGMP level is increased in the hearts of treated mice and returns to normal 1 h after injection. In the circulation of treated mice, cGMP level is increased from 1 h to 24 h after ...

[3] = Survival of infarcted mice at 14 days; type: in vivo, mouse; settings: 14 days after MI; BNP ip every 2 days; saline group 83.9%
Protocol: To generate a permanent infarction, a ligation of the left anterior descending coronary artery (LAD) was performed in 6–8-week-old C57BL/6- or 8-week-old Myh6 MerCreMer mice, already injected with Tamoxifen 2 weeks before. Mice were anesthetized with ketamine/xylazine and acepromazine (65 mg/kg, 15 mg/kg, 2 mg/kg, respectively). Mice were intubated and ventilated during all the entire period of surgery. At the third intercostal space, the chest cavity was opened and at the left upper sterna border, the LAD coronary artery was ligated with a 7–0 nylon suture at about 1–2 mm from the atria. After surgery, Temgesic (Buprenorphine, 0.1 mg/kg) was injected subcutaneously as soon as the mice woken up and every 8–12 h for 2 days. Adult mice were sacrificed by lethal injection of pentobarbital (150 mg/kg intraperitoneally) 2 weeks after the surgery. The breathing arrest was controlled and cervical dislocation was performed.
BNP was injected into infarcted adults, and unmanipulated neonatal and adult mice. Directly after surgery, NaCl (saline) or BNP (1.3 µg/20 g in 20 µL) was injected into the left ventricle cavity. At 24 h after MI, mice were intraperitoneal (ip) injected with BNP (2 µg/20 g mice) or saline every 2 days. C57BL/6 mice were sacrificed 1- and 14 days post-MI and Myh6 MerCreMer mice were sacrificed 14 days post-MI (Figure 1A). […]

[4] = cited from earlier work
DAPI+ Troponin I+ cells = experiment: Flow cytometry of apoptotic CMs (DAPI+ Troponin I+ cells) after isolation; type: in vivo, mouse; settings: CMs isolated from adult hearts injected during 2 weeks with BNP; saline 3.5 ± 0.5%
[5] = CMs from border area of infarcted hearts, BNP vs saline
[6] = CMs from unmanipulated adult hearts, BNP vs saline

Brain Natriuretic Peptide (SQGSTLRVQQRPQNSKVTHISSCFGHKIDRIGSVSRLGCNALKLL; not fully specified; ends and bridges not checked; UniProt P40753 77-121, looked up) [BNP, synthetic mouse BNP (1–45) peptide (Bachem, catalog number H-7558)]
hearts with increased cyclin A2 and B2 mRNA in isolated CMs (cardiomyocytes (CMs) [1]; CMs from BZ of BNP-treated infarcted hearts, vs saline): 4 out of 8
mRNA expression of myh7, acta1, hif1α (cardiomyocytes (CMs) [1]; CMs from RZ of BNP-treated infarcted hearts (data not shown)): No difference
acta1 mRNA level increase (cardiomyocytes (CMs) [1]; [5]): 2 ×
hif1α mRNA level increase (cardiomyocytes (CMs) [1]; [5]): 1.4 ×
hif1α mRNA level increase (cardiomyocytes (CMs) [1]; CMs from neonatal BNP-treated hearts, vs saline): 1.5 ×
acta1 mRNA level increase (cardiomyocytes (CMs) [1]; [6]): 1.4 ×
hif1α mRNA level increase (cardiomyocytes (CMs) [1]; [6]): 1.8 ×
myh7 mRNA level increase (cardiomyocytes (CMs) [1]; [6]): 1.9 ×
mRNAs coding for cyclins E1, A2 or B2 (cardiomyocytes (CMs) [1]; CMs isolated from all neonatal BNP-treated hearts, vs saline): increased levels
CM isolations with increased cyclin A2 or B2 mRNA (cardiomyocytes (CMs) [1]; unmanipulated adult BNP-treated hearts, vs saline): 5 out of 7
pPLB/PLB ratio increase (phospholamban (PLB)): 2.1 ×
Aurkb+ Troponin I+ CMs in culture (adult CMs): detected only in BNP-treated cell cultures
anf mRNA increase (adult CMs; vs untreated): 70%
cyclin E1 mRNA increase (adult CMs; vs untreated): 56%
dab2 mRNA increase (adult CMs; vs untreated): 52%
runx1 mRNA increase (adult CMs; vs untreated): 62%
pERK/ERK ratio increase (ERK): 1.6 ×
myh7 mRNA level increase (cardiomyocytes (CMs) [2]): 2.7 ×
cGMP level in the hearts (cGMP; 30 min after injection, returns to normal 1 h after injection): increased
cGMP level in the circulation (cGMP; from 1 h to 24 h after injections): increased
survival of infarcted mice [3]: 84.2%
half-life in the circulation ([4]; healthy persons): about 18 min
half-life in the plasma ([4]; patients with congestive heart failure): ~12 min
percentage of DAPI+ CMs (DAPI+ Troponin I+ cells): 4 ± 1%
